Reference: US4120895A, “S-phenenyltris (iminocarbonyl) triisophthalic acid salts” (American Cyanamid Company, priority 1977, dated 1978)
Where a name gives a salt, the structure may show the parent alone.

Legend:
activated human C1 = molecular target: T1, activated human C1 (Homo sapiens, UniProt P09871); test: Test, Code 026 (C1 inhibitor); format: biochemical
T1 construct: fluid-phase human C2 consumption in presence of C4
Source text: An active inhibitor protects C2 from C1 and C4; (ii) Test, Code 035 (C3-C9 inhibitor)-This test determines the ability of the late components of human complement (C3-C9) to lyse EAC 142 in the presence of appropriate dilutions of the test compound. An active inhibitor protects EAC 142 from lysis by human C3-C9; (iii) Test, Code 036 (C-Shunt inhibitor) - In this test human erythrocytes rendered fragile are lysed in autologous serum via the shunt pathway activated by cobra venom factor in the presence of appropriate dilutions of the test compound. Inhibition of the shunt pathway results in failure of lysis; (iv) Forssman Vasculitis Test -- Here, the well known complement dependent lesion, Forssman vasculitis, is produced in guinea pigs by intradermal injection of rabbit anti-Forssman antiserum. The lesion is measured in terms of diameter, edema and hemorrhage and the extent to which a combined index of these is inhibited by prior intraperitoneal injection of the test compound at 200 mg/kg is then reported, unless otherwise stated; (v) Forssman Shock Test -- Lethal shock is produced in guinea pigs by an i.v. injection of anti-Forssman antiserum and the harmonic mean death time of treated guinea pigs is compared with that of simultaneous controls; (vi) Complement Level Reduction Test -- In this test, the above dosed guinea pigs, or others, are bled for serum and the complement level is determined in undiluted serum by the capillary tube method of U.S. Pat. No. 3,876,376 and compared to undosed control guinea pigs; and (vii) Cap 50 Test -- Here, appropriate amounts of the test compound are added to a pool of guinea pig serum in vitro, after which the undiluted serum capillary tube assay referred to above is run. The concentration of compound inhibiting 50% is reported.

[1] = test system: Citrated sheep plasma (CSP); test: in vitro anti-coagulant activity (AC); format: biochemical
Procedure: The sheep RBC's, kept in suspension throughout the clotting incubation time, become enmeshed in the fibrin matrix if a clot forms. Upon centrifugation of the plate, untrapped RBC's form buttons, the sizes of which correspond to the degree of clot inhibition; this providing a measure of anti-coagulant activity (AC). Sodium heparin is used as a positive control and activity is reported in wells appearing in Table I.

T1 sequence (P09871 16-688): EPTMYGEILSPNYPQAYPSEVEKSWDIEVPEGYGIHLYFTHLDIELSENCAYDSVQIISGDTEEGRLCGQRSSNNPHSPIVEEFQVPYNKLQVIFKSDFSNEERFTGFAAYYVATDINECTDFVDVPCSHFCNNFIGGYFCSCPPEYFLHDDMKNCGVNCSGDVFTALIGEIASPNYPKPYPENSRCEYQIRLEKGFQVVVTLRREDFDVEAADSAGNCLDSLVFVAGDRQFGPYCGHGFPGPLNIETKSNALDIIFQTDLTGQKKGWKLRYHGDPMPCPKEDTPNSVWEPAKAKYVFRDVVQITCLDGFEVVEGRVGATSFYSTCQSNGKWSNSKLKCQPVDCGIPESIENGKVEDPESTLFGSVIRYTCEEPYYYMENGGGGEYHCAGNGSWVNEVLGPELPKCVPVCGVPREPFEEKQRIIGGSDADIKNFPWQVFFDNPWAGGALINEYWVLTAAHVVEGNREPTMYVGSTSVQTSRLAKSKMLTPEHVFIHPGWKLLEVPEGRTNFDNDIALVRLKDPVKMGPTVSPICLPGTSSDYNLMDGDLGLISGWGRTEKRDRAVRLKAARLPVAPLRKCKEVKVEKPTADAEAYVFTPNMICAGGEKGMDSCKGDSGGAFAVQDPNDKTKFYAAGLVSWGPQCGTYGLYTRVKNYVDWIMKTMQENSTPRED
T1 sequence (P00736 18-705 partner): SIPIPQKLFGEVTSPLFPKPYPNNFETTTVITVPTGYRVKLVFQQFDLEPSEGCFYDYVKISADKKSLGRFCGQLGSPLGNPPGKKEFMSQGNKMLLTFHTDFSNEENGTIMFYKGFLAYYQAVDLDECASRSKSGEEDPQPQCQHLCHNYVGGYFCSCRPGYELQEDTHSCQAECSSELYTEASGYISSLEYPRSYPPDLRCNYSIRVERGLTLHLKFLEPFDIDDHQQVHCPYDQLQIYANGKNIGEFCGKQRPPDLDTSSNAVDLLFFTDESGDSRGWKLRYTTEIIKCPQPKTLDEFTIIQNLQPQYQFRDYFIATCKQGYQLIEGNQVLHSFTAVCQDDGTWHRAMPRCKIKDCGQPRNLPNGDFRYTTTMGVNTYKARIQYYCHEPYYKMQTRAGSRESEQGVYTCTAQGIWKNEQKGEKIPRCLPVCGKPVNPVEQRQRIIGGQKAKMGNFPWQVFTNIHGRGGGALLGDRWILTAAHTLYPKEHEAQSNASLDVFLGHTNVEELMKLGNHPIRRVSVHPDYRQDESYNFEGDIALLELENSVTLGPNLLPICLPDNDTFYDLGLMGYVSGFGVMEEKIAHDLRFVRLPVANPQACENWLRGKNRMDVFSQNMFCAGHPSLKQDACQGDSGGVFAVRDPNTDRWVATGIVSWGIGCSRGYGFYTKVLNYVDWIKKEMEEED
T1 sequence (P02745 23-245 partner): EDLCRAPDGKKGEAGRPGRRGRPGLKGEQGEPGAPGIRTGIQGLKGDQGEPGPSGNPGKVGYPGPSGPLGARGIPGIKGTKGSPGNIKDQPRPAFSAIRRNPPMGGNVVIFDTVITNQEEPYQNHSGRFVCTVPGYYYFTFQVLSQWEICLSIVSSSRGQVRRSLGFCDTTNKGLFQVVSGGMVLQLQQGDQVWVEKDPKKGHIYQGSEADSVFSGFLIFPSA
T1 sequence (P02746 28-253 partner): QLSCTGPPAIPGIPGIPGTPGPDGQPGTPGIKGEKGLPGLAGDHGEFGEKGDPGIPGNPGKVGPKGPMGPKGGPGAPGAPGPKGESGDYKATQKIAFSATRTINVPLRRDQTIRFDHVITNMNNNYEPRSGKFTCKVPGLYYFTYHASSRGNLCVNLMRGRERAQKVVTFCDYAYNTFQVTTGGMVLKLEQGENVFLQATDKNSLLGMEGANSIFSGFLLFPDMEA
T1 sequence (P02747 29-245 partner): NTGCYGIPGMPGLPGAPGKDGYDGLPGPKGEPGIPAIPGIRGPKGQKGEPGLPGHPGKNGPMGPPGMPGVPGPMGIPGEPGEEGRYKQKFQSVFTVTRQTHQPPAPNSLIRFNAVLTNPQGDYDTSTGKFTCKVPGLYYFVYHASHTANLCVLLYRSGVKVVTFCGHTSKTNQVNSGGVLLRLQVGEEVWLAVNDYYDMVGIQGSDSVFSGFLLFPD

Cl 026 Wells (activated human C1; Table I, two-fold serial dilution assay, higher well number indicates higher activity): +3 Wells
In Vitro Activity, Complement Inhibiting Activity (Wells) Code 026 (activated human C1; Table II): +3 Wells
Logarithmic Difference Expressed as Wells (activated human C1; Table II, Code 026 wells minus AC wells (base 2)): +5 Wells
Structure (SMILES): O=C(O)c1cc(C(=O)O)cc(C(=O)Nc2cc(NC(=O)c3cc(C(=O)O)cc(C(=O)O)c3)cc(NC(=O)c3cc(C(=O)O)cc(C(=O)O)c3)c2)c1 [5,5',5"-[s-Phenenyltris(iminocarbonyl)]triisophthalic acid hexasodium salt]
AC Wells ([1]; Table I, clot inhibition, recalcified citrated sheep plasma with sheep RBC, serial dilutions): < -2 Wells
In Vitro Activity, Anti-Coagulant Activity (Wells) AC ([1]; Table II): -2 Wells
